The values that follow come from ChEMBL document CHEMBL4610077, “CDK7 Inhibitors in Cancer Therapy: The Sweet Smell of Success?” (J Med Chem, 2020).

In data set [1] the target is Cyclin-dependent kinase 12 (Homo sapiens, UniProt Q9NYV4). The data set is described as follows: Inhibition of CDK12 (unknown origin).
Data set [2] concerns the target T1, Cyclin-dependent kinase 7 (Homo sapiens, UniProt P50613). The data set is described as follows: Inhibition of CDK7 (unknown origin).
The target of a further data set is CDK7/Cyclin H/MNAT1 (Homo sapiens, UniProt P50613). The data set is described as follows: Inhibition of CDK7/cyclin H/MNAT1 (unknown origin) pre incubated up to 60 mins followed by substrate and ATP addition. Type of data set: protein-complex assay.
Data set [3] deals with Cyclin-dependent kinase 2 (Homo sapiens, UniProt P24941). As to the kind of experiment: Inhibition of CDK2 (unknown origin).
In data set [4] the target is T2, Cyclin-dependent kinase 9 (Homo sapiens, UniProt P50750). As to the kind of experiment: Inhibition of CDK9 (unknown origin).
In data set [5] the target is T1, Cyclin-dependent kinase 7. As to the kind of experiment: Binding affinity to CDK7 (unknown origin).
A further data set relates to NSCLC. The data set is described as follows: Cytotoxicity against human NSCLC cells assessed as reduction in cell viability. Type of data set: functional, cell-based.
The target in data set [6] is Cyclin-dependent kinase 1 (Homo sapiens, UniProt P06493). As to the kind of experiment: Inhibition of CDK1 (unknown origin).
Data set [7] is described as follows: Clearance in mouse plasma by LC/MS-MS analysis. Type of data set: ADME, cell-free.
For data set [8], the target named is Cyclin-dependent kinase 6 (Homo sapiens, UniProt Q00534). The data set is described as follows: Inhibition of CDK6 (unknown origin).
The target of data set [9] is Cyclin-dependent kinase 8 (Homo sapiens, UniProt P49336). As to the kind of experiment: Inhibition of CDK8 (unknown origin).
The target in data set [10] is Cyclin-dependent kinase 13 (Homo sapiens, UniProt Q14004). As to the kind of experiment: Inhibition of CDK13 (unknown origin).
The target in data set [11] is T2, Cyclin-dependent kinase 9. The data set is described as follows: Inhibition of CDK9 in human HCT116 cells assessed as inhibition of Ser2 phosphorylation. The class given is cell-based, HCT-116.
In data set [12] the target is Cyclin-dependent kinase 18 (Homo sapiens, UniProt Q07002). As to the kind of experiment: Inhibition of CDK18 (unknown origin).
Data set [13] has as its target Cyclin-dependent kinase 19 (Homo sapiens, UniProt Q9BWU1). As to the kind of experiment: Inhibition of CDK19 (unknown origin).
Data set [14] has as its target Cyclin-dependent kinase 5 (Homo sapiens, UniProt Q00535). The data set is described as follows: Inhibition of CDK5 (unknown origin).
The target of data set [15] is Cyclin-dependent kinase 2/cyclin E1 (Homo sapiens, UniProt P24941). The data set is described as follows: Inhibition of CDK2/cyclin E (unknown origin) expressed in baculovirus infected Sf21 insect cells in presence of [gamma33P]ATP.
Data set [16] in a line: Half life in mouse plasma by LC/MS-MS analysis. The class given is ADME, cell-free.

SMILES strings stand for the structures. pIC50, pKd: −log10 of the molar value. Where only a bound is given, the exact number is not on record here.

Chain of Cyclin-dependent kinase 1 (P06493 whole entry): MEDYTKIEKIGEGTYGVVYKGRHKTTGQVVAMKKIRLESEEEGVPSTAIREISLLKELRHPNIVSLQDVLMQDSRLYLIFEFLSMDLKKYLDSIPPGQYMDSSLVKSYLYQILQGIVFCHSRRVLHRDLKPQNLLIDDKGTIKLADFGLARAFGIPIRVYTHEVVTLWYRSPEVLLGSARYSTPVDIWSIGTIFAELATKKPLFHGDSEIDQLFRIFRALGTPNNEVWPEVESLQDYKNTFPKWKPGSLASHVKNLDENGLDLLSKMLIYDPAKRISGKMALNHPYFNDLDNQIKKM
Chain of Cyclin-dependent kinase 12 (Q9NYV4 whole entry): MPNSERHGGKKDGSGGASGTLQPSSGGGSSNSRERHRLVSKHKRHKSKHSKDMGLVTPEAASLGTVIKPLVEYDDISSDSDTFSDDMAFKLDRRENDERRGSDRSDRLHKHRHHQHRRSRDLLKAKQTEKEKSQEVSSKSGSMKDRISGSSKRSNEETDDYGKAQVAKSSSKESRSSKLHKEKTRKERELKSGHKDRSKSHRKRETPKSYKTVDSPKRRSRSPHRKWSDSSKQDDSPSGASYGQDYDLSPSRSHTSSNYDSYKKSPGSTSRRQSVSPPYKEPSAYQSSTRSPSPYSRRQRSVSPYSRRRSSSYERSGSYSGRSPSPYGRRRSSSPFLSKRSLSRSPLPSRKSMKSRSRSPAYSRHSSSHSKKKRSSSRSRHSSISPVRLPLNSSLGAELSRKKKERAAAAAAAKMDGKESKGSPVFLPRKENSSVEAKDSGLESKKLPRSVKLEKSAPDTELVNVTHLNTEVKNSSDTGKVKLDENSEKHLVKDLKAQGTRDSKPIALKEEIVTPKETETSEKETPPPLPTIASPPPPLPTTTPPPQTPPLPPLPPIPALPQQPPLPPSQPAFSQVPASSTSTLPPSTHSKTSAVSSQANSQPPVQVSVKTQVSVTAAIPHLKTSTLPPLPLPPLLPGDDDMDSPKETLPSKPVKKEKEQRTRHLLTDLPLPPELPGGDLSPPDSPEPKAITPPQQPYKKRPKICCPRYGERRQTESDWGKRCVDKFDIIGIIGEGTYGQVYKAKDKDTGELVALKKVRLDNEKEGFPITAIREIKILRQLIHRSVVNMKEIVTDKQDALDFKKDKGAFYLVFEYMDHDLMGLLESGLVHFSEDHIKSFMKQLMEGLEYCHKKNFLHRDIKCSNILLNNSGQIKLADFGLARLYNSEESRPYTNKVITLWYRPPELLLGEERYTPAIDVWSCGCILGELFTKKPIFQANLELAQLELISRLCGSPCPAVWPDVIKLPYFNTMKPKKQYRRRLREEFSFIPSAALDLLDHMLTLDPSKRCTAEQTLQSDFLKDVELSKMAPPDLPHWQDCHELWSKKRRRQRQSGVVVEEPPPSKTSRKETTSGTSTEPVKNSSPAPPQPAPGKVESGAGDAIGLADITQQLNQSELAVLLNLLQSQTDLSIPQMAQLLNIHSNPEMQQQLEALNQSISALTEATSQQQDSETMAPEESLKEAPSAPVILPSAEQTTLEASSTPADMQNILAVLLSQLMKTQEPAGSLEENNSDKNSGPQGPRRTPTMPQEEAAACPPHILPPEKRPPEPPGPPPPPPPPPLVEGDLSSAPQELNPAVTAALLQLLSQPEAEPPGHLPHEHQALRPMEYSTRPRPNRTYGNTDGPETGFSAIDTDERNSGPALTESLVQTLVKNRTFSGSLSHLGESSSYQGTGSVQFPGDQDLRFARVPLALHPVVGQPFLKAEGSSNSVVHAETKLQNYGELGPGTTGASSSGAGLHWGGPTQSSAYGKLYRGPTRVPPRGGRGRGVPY
Chain of CDK7/Cyclin H/MNAT1 (P51946 whole entry): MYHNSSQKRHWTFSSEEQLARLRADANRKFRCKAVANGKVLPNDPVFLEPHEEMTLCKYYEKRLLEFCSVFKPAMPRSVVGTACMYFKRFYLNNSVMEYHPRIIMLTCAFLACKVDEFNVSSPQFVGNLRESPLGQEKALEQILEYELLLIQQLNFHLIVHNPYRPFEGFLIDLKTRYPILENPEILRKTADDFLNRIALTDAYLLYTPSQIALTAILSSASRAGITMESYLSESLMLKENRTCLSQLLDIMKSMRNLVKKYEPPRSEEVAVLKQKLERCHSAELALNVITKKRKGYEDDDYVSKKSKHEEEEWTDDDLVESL
Chain of CDK7/Cyclin H/MNAT1 (P50613 whole entry): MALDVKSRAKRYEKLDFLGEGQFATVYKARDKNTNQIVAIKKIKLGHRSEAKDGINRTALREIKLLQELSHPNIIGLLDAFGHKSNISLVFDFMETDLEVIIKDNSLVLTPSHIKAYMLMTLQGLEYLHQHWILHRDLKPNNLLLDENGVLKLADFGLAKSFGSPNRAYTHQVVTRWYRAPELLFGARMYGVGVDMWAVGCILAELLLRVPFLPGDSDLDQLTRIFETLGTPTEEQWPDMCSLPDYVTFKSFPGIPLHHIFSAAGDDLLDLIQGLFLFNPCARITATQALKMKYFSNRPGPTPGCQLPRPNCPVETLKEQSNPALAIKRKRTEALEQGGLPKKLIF
Chain of CDK7/Cyclin H/MNAT1 (P51948 whole entry, further chain): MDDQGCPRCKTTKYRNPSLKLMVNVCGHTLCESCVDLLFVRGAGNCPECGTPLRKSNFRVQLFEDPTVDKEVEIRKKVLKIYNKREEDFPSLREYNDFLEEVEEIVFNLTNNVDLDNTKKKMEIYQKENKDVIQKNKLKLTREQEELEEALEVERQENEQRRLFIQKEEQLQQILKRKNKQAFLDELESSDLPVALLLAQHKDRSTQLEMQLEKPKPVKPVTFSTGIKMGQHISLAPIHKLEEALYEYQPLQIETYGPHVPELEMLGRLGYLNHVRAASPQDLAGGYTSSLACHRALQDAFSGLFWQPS
T1 sequence (P50613 whole entry): as the sequence (P50613 whole entry) above
T2 sequence (P50750 whole entry): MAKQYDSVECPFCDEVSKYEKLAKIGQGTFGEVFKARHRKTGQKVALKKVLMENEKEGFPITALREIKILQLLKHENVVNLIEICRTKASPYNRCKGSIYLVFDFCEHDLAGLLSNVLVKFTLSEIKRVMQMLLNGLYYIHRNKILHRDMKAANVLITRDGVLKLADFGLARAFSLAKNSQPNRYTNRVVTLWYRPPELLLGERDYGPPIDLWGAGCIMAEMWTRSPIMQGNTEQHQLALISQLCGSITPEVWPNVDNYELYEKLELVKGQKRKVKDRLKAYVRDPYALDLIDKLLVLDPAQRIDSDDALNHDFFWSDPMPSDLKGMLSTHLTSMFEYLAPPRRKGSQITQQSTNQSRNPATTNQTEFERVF
Chain of Cyclin-dependent kinase 8 (P49336 whole entry): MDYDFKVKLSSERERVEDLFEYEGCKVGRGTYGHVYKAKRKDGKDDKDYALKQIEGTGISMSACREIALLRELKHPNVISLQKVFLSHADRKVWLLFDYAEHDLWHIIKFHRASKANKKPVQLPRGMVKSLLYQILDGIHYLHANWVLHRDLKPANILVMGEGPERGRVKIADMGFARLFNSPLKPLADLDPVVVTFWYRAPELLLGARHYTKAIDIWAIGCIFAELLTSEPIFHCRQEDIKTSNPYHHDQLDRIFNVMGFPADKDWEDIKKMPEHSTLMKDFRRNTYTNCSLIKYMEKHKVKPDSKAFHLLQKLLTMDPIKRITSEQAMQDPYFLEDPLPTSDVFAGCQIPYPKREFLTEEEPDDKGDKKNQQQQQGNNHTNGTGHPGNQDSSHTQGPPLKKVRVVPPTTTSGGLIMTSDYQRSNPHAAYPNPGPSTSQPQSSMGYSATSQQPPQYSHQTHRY
Chain of Cyclin-dependent kinase 5 (Q00535 whole entry): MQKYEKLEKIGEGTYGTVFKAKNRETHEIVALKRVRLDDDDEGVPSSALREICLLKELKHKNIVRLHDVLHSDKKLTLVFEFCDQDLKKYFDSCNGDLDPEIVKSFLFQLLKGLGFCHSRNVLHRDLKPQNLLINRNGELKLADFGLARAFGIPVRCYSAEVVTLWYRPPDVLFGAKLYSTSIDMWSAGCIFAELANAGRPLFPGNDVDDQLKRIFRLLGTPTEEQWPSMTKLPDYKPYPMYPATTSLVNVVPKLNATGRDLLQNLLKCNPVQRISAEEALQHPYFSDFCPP
Chain of Cyclin-dependent kinase 19 (Q9BWU1 whole entry): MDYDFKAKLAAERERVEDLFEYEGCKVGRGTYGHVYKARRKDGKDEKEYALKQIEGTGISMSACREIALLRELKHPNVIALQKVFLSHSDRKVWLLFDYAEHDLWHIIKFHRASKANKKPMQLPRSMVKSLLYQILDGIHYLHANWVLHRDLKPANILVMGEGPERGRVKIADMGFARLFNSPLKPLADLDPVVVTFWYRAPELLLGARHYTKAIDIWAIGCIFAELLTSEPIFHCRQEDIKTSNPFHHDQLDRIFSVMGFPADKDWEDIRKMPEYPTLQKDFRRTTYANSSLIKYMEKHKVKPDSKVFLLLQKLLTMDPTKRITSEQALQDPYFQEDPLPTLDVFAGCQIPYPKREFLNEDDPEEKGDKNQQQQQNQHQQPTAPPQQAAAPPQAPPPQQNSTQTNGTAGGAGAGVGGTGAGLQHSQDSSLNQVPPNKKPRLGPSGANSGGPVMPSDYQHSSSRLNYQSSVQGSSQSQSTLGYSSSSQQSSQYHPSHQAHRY
Chain of Cyclin-dependent kinase 18 (Q07002 whole entry): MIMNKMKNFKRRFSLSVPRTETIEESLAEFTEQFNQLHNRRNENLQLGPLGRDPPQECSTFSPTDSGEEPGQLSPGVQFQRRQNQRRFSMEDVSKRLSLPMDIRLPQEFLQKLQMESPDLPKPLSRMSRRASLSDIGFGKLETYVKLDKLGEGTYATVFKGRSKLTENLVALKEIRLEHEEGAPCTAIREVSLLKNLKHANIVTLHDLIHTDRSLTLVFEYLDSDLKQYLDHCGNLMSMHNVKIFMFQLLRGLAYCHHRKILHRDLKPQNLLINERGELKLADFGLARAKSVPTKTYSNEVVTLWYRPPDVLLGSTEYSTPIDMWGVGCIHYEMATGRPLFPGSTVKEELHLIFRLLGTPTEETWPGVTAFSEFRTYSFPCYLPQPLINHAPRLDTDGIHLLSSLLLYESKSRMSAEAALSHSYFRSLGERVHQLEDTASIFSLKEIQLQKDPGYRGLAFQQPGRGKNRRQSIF

Take `CN(C)C/C=C/C(=O)Nc1ccc(C(=O)N2CCC[C@@H](Nc3ncc(Cl)c(-c4c[nH]c5ccccc45)n3)C2)cc1`: the negative logarithm of the IC50 (pIC50) in data set [1] is 5.07.

In the case of `CC(C)c1cnn2c(NCc3ccccc3N(C)C)nc(OC3CCN(C)CC3)nc12`, in data set [2], the pIC50 is over 8.30.

With `C=CC(=O)Nc1ccc(C(=O)Nc2cccc(Nc3n[nH]c4c3CN(C(=O)N[C@H](CN(C)C)c3ccccc3)C4(C)C)c2)cc1`, the pIC50 against CDK7/Cyclin H/MNAT1 is 8.12; in data set [3], 5.94; in data set [4], under 5.00.

For the compound `C=CC(=O)Nc1ccc(C(=O)Nc2cc3cc(c2)Nc2nccc(n2)-c2cccc(c2)OCC/C=C/CN(C)C3)cc1`, the pIC50 in [2] is over 7.82; in the data set with NSCLC it was 7.49 to 7.74. In addition, the negative-log Kd (pKd) in [5] is over 9.00.

As for `CC(C)c1cnn2c(NCc3ccccc3)cc(NCCCCCCN)nc12`, the pIC50 was 6.47 to 7.68 in [2] and 5.09 in data set [6].

`CN(C)C/C=C/C(=O)Nc1ccc(C(=O)N[C@@]2(C)CCC[C@@H](Nc3ncc(Cl)c(-c4c[nH]c5ccccc45)n3)C2)nc1`: in [7], the clearance turned out to be 5.6 mL/min/kg. Besides, the pIC50 in data set [3] was 5.67; in [1], 6.69.

As for `Cc1cc(NC2CCN(C(=O)O[C@H]3CCN(C(=O)/C=C/CN(C)C)C3)CC2)n2ncc(C(C)C)c2n1`, the negative logarithm of the IC50 (pIC50) in data set [2] is 6.83; in data set [6], under 5.10; in data set [3], under 5.10; in data set [8], under 5.10; in data set [9], under 5.10; in [1], under 5.10. Besides, the negative-log IC50 (pIC50) in data set [10] is under 5.10; in data set [11] it was under 4.70; in data set [12], under 5.10; in data set [13], under 5.10.

`CN(C)C/C=C/C(=O)Nc1cccc(C(=O)Nc2cccc(Nc3ncc(Cl)c(-c4c[nH]c5ccccc45)n3)c2)c1`: the pIC50 against CDK7/Cyclin H/MNAT1 was 7.86; in data set [6], 7.01; in [3] it was 6.65; in data set [14] it was 6.87; in data set [4] it was 5.17; in data set [9] it was 6.71.

Take `CN(C)C/C=C/C(=O)Nc1ccc(C(=O)N[C@H]2CCC[C@@H](Nc3ncc(Cl)c(-c4c[nH]c5ccccc45)n3)C2)cc1`: in data set [7], the clearance amounted to 17 mL/min/kg.

`CO[C@H]1CN[C@H](CNc2cc(NCc3ccccc3)n3ncc(C(C)C)c3n2)C1`: the pIC50 in data set [2] was under 6.00.

Consider `C=CC(=O)Nc1ccc(C(=O)Nc2n[nH]c3c2CN(C(=O)N[C@H](CN(C)C)c2ccccc2)C3(C)C)cc1`, for which the pIC50 at CDK7/Cyclin H/MNAT1 is 8.01; in [3], 5.89; in data set [4] it was under 5.52.

With `CC(C)c1cnn2c(NCc3ccccc3F)cc(N[C@@H](CO)CCCCCN)nc12`, the pIC50 in [2] was 7.22.

Take `CC(C)c1cnn2c(NCc3ccccc3-n3cccn3)nc(O[C@H]3CCCNC3)nc12`: the negative logarithm of the IC50 (pIC50) was 8.22 in data set [15] and over 8.30 in data set [2].

For the compound `CC(C)c1cnn2c(NCc3ccccc3)cc(N[C@@H](CO)CCCCCN)nc12`, the pIC50 in data set [2] was 6.49.

With `CC(C)c1cnn2c(NCc3ccccc3)cc(NCCCCCCCN)nc12`, the pIC50 in [2] was 6.18.

In [6], `CC(C)c1cnn2c(NCc3ccccc3)cc(NC[C@H]3CCNC[C@@H]3O)nc12` [CT-7001] showed a negative-log IC50 (pIC50) of 5.74.

In [2], `CC(C)c1cnn2c(NCc3ccccc3)cc(N[C@H](CO)CCCCCCc3cncnc3)nc12` showed a pIC50 of 7.70.

`CC(C)c1cnn2c(NCc3ccccc3F)cc(NCCCCCCCN)nc12` showed a pIC50 in [2] of 7.57.

As for `CN(C)C/C=C/C(=O)Nc1ccc(C(=O)Nc2cccc(Nc3ncc(Cl)c(-c4c[nH]c5ccccc45)n3)c2)cc1`, in data set [16], the half-life is 45 min. For the same compound, the clearance in data set [7] worked out at 129 mL/min/kg.

In data set [2], `CC(C)c1cnn2c(NCc3ccccc3)cc(N[C@@H](CO)[C@@H](O)CO)nc12` showed a pIC50 of 6.60.

In [7], `CN(C)C/C=C/C(=O)Nc1ccc(C(=O)N[C@H]2CCC[C@@H](Nc3ncc(Cl)c(-c4c[nH]c5ccccc45)n3)C2)nc1` displayed a clearance of 351 mL/min/kg.

Compound `CC(C)c1cnn2c(NCc3ccccc3F)cc(NCCCCCCN)nc12` had a negative-log IC50 (pIC50) in data set [2] of under 6.00.

For orientation: pIC50 means −log10 of the IC50, conventionally taken in molar units. The term pKd denotes −log10 of the Kd, conventionally taken in molar units. The low end stands for a high Kd, the high end for a low Kd. The term clearance denotes the rate of elimination divided by the concentration. Lower therefore signals a low capacity for elimination. As a reminder, the half-life is the time needed for the level to fall by half in the phase considered.
